Test results as given in PMC5540273, “Progress towards a public chemogenomic set for protein kinases and a call for contributions” (PLoS ONE, 2017).

Key:
LKB1 = target: T1, LKB1 (Homo sapiens, UniProt Q15831); experiment: KINOMEscan competition binding; settings: read-out: %Inh LKB1
T1 sequence (Q15831 1-433): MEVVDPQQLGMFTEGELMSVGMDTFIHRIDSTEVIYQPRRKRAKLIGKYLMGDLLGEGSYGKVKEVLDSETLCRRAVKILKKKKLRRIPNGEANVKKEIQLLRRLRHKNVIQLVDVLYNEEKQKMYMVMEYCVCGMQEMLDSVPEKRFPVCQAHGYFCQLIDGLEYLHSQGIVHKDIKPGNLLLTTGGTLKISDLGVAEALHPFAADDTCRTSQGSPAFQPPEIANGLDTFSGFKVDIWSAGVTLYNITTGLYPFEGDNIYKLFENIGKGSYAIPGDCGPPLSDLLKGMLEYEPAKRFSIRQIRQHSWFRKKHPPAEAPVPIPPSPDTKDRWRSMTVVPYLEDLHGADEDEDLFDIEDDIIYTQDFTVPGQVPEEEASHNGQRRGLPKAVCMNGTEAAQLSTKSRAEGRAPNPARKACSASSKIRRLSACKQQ

[1] = tested on: 392 wild-type human kinases; experiment: KINOMEscan assay panel, PKIS2 profiling; assay type: binding; settings: 1 μM
From the text: Since the assay was only run in singlicate it was important to follow up actives with Kd determinations.

GRK3 = target: T2, GRK3 (Homo sapiens, UniProt P35626); experiment: KINOMEscan competition binding; settings: read-out: %Inh GRK3
T2 sequence (P35626 1-688): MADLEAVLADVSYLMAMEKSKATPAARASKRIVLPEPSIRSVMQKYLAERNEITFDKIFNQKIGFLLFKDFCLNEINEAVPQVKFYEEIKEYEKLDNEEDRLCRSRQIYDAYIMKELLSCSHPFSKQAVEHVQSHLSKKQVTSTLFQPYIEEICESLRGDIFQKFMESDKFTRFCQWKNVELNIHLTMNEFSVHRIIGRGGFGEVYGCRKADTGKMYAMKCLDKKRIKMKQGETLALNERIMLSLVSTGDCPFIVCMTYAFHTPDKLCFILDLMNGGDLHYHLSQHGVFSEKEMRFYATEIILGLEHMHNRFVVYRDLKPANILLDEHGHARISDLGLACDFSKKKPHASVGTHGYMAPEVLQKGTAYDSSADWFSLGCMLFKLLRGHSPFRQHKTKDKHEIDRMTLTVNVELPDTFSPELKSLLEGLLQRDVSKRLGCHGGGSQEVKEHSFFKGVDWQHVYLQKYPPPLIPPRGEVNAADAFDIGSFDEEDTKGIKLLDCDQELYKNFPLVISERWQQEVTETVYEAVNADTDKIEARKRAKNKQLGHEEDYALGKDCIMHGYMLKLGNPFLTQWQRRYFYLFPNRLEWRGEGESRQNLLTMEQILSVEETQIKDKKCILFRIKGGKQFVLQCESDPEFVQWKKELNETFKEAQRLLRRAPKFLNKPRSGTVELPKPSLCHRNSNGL

LATS2 = target: T3, LATS2 (Homo sapiens, UniProt Q9NRM7); experiment: KINOMEscan competition binding; settings: read-out: %Inh LATS2
T3 sequence (Q9NRM7 1-1088): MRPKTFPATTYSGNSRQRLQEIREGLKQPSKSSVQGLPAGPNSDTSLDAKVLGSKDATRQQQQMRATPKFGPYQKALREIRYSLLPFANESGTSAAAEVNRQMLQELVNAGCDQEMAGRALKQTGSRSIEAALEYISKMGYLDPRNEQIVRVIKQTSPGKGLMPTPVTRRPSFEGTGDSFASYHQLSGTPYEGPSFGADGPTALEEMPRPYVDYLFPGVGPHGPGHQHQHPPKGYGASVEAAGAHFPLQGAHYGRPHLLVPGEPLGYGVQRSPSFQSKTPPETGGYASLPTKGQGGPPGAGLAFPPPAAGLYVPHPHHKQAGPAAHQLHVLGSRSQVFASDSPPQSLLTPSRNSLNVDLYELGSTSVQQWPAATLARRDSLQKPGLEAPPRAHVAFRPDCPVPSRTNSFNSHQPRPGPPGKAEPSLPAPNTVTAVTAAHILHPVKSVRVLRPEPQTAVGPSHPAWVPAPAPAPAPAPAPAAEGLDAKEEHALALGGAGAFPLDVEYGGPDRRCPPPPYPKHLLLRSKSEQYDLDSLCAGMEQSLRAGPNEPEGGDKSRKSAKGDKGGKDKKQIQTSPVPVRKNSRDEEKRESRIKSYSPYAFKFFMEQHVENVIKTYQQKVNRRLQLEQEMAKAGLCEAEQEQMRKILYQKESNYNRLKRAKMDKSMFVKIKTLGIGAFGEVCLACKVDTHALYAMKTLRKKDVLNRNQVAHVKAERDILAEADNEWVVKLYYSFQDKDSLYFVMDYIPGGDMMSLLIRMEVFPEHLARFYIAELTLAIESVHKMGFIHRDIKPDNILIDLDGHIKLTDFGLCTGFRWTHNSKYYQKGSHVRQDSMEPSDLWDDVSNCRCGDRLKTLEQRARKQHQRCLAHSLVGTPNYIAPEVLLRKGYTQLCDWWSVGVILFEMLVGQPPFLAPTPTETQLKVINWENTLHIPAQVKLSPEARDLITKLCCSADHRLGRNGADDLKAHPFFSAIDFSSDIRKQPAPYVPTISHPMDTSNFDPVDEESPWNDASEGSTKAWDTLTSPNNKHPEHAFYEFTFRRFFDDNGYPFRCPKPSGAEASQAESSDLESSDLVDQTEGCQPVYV

With `CS(=O)(=O)Cc1ccc(Nc2nccc(-c3c(-c4cccc(NC(=O)C5CCCCC5)c4)nn4ncccc34)n2)cc1` [UNC10225159A] the inhibition at 1 µM (LKB1) was 0%, the “>70 (number of kinases with %Inh >70)” value [1] was 12 and the “>80 (number of kinases with %Inh >80)” value [1] was 10. The “>90 (number of kinases with %Inh >90)” value [1] was 5, the inhibition at 1 µM (GRK3) was 0% and the inhibition at 1 µM (LATS2) was 48%.

`Cn1cc(-c2cnc(N)c3c(-c4ccc5c(c4)CCN5C(=O)Cc4ccccc4)csc23)cn1` [UNC10225012A] was tested, and the inhibition at 1 µM (LKB1) was 0%, the “>70 (number of kinases with %Inh >70)” value [1] was 42 and the “>80 (number of kinases with %Inh >80)” value [1] was 36. For the same compound, the “>90 (number of kinases with %Inh >90)” value [1] was 27, the inhibition at 1 µM (GRK3) was 0% and the inhibition at 1 µM (LATS2) was 23%.

In the case of `O=c1cc(N2CCOCC2)nc2n(Cc3cccc(Cl)c3Cl)c(C3CC3)nn12` [UNC10225469A], the inhibition at 1 µM (LKB1) is reported as 15%, the “>70 (number of kinases with %Inh >70)” value [1] is reported as 3 and the “>80 (number of kinases with %Inh >80)” value [1] is reported as 3. For the same compound, the “>90 (number of kinases with %Inh >90)” value [1] was 2, the inhibition at 1 µM (GRK3) was 0% and the inhibition at 1 µM (LATS2) was 27%.

With `COc1cccc(OC)c1C(=O)Nc1cccc(-c2nn3ccccc3c2-c2ccnc(Nc3cccc(F)c3)n2)c1` [UNC10225310A] the inhibition at 1 µM (LKB1) was 6%, the “>70 (number of kinases with %Inh >70)” value [1] was 19 and the “>80 (number of kinases with %Inh >80)” value [1] was 19. The “>90 (number of kinases with %Inh >90)” value [1] was 12, the inhibition at 1 µM (GRK3) was 0% and the inhibition at 1 µM (LATS2) was 10%.

With `Cc1ccc(NC(=O)Nc2cccc(C(F)(F)F)c2)cc1` [UNC10225187A] the inhibition at 1 µM (LKB1) was 16%, the “>70 (number of kinases with %Inh >70)” value [1] was 4 and the “>80 (number of kinases with %Inh >80)” value [1] was 4. For the same compound, the “>90 (number of kinases with %Inh >90)” value [1] was 3, the inhibition at 1 µM (GRK3) was 0% and the inhibition at 1 µM (LATS2) was 20%.
